# Reference: patent US20100144733A1, “Compounds, compositions and methods comprising heteroaromatic derivatives” (Institute for OneWorld Health, priority 2008, published 2010)
# Biological target: T1, CFTR (Homo sapiens, UniProt P13569)
# T1 construct: endogenous in cells; host or cells: T84 human colonic cells (ECACC)
# Assay: T84 assay (FLIPR membrane potential dye, forskolin/IBMX-stimulated CFTR channel activity)
# Format: cell-based
# Conditions: oxadiazole-containing compounds (a series), average of at least 2 runs unless annotated n = 1, read-out: IC50
# How it was run: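 Fluorescence from a membrane potential dye in T84 monolayers (HBSS with 10 mM Hepes) is followed each second for 150 s. Cells are exposed to test compound during the 45 min dye loading, then challenged with forskolin (10 μM) and IBMX (100 μM) to open CFTR. Inhibitors suppress the depolarization-driven fluorescence increase.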
# T1 sequence (P13569 whole entry): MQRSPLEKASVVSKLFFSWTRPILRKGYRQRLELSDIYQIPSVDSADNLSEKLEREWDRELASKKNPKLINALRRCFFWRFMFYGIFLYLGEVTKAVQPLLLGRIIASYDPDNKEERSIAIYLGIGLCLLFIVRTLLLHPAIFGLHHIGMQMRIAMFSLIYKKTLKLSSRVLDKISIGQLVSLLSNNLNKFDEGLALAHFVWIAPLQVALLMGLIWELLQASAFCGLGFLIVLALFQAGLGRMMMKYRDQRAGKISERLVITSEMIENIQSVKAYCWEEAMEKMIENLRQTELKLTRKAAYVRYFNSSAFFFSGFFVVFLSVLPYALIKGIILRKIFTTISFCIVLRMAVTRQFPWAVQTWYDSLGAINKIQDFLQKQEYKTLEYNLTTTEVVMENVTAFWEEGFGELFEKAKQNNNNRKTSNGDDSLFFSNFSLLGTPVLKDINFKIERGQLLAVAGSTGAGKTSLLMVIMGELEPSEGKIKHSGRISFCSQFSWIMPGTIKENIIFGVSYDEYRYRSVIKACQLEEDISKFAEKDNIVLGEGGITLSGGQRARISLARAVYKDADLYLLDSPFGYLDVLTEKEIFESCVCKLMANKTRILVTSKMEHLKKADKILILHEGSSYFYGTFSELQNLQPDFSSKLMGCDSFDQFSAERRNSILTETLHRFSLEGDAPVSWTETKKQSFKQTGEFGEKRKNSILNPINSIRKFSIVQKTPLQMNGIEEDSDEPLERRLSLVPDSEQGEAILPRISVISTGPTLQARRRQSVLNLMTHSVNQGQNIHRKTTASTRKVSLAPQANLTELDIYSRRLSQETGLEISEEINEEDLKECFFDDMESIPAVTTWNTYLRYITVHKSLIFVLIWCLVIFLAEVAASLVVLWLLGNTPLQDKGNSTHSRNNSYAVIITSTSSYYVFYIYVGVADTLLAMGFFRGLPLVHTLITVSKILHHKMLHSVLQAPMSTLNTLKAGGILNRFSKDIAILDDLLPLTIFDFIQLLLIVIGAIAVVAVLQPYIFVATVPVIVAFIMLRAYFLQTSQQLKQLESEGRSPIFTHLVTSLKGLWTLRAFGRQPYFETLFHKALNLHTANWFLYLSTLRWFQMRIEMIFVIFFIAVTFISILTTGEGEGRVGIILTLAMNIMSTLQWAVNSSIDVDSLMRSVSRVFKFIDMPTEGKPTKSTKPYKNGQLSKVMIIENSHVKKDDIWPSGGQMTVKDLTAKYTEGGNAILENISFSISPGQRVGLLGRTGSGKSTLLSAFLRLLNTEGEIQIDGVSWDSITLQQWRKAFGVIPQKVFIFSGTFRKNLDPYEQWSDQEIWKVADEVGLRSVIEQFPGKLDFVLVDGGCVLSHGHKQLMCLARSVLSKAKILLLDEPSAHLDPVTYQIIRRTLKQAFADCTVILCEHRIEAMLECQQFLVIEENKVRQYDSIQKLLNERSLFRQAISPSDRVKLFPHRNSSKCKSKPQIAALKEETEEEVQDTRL
row,IC50,Structure (SMILES)
1,9.87 µM,"O=C(NCc1cccc(Oc2ccccc2)c1)c1nc(-c2cc(Cl)c(O)c(Cl)c2)no1 [145a, 3-(3,5-dichloro-4-hydroxyphenyl)-N-(3-phenoxybenzyl)-1,2,4-oxadiazole-5-carboxamide]"
2,11.2 µM,"O=C(NCc1ccc(F)c(C(F)(F)F)c1)c1nc(-c2cc(Cl)c(O)c(Cl)c2)no1 [146a, 3-(3,5-dichloro-4-hydroxyphenyl)-N-(4-fluoro-3-(trifluoromethyl)benzyl)-1,2,4-oxadiazole-5-carboxamide]"
3,29.9 µM,"O=C(NCc1cccc(-c2ncccn2)c1)c1nc(-c2cc(Cl)c(O)c(Cl)c2)no1 [147a, 3-(3,5-dichloro-4-hydroxyphenyl)-N-(3-(pyrimidin-2-yl)benzyl)-1,2,4-oxadiazole-5-carboxamide]"
4,8.26 µM,"CN(Cc1ccc(C(C)(C)C)cc1)C(=O)c1nc(-c2cc(Cl)c(O)c(Cl)c2)no1 [148a, N-(4-tert-butylbenzyl)-3-(3,5-dichloro-4-hydroxyphenyl)-N-methyl-1,2,4-oxadiazole-5-carboxamide]"
5,6.7 µM,"CC(NC(=O)c1nc(-c2cc(Cl)c(O)c(Cl)c2)no1)c1ccc(Cl)cc1 (stereo not drawn) [149a, N-(1-(4-chlorophenyl)ethyl)-3-(3,5-dichloro-4-hydroxyphenyl)-1,2,4-oxadiazole-5-carboxamide]"
6,6.25 µM,"CCc1ccc(CN(C)C(=O)c2nc(-c3cc(Cl)c(O)c(Cl)c3)no2)cc1 [150a, 3-(3,5-dichloro-4-hydroxyphenyl)-N-(4-ethylbenzyl)-N-methyl-1,2,4-oxadiazole-5-carboxamide]"
7,6.24 µM,"CC(C)(C)C(=O)CN(Cc1ccccc1)C(=O)c1nc(-c2cc(Cl)c(O)c(Cl)c2)no1 [151a, N-benzyl-3-(3,5-dichloro-4-hydroxyphenyl)-N-(3,3-dimethyl-2-oxobutyl)-1,2,4-oxadiazole-5-carboxamide]"
8,8.88 µM,"CC(C)(C)C(=O)CN(Cc1ccc(F)c(F)c1)C(=O)c1nc(-c2cc(Cl)c(O)c(Cl)c2)no1 [152a, 3-(3,5-dichloro-4-hydroxyphenyl)-N-(3,4-difluorobenzyl)-N-(3,3-dimethyl-2-oxobutyl)-1,2,4-oxadiazole-5-carboxamide]"
9,2.99 µM,"O=C(NCc1ccc(OCc2ccccc2)cc1)c1nc(-c2cc(Cl)c(O)c(Cl)c2)no1 [153a, N-(4-(benzyloxy)benzyl)-3-(3,5-dichloro-4-hydroxyphenyl)-1,2,4-oxadiazole-5-carboxamide]"
10,3.89 µM,"O=C(NCc1cc(F)cc(C(F)(F)F)c1)c1nc(-c2cc(Cl)c(O)c(Cl)c2)no1 [154a, 3-(3,5-dichloro-4-hydroxyphenyl)-N-(3-fluoro-5-(trifluoromethyl)benzyl)-1,2,4-oxadiazole-5-carboxamide]"
11,2.22 µM,"O=C(NCc1cc(C(F)(F)F)ccc1F)c1noc(-c2cc(Cl)c(O)c(Cl)c2)n1 [155a, 5-(3,5-dichloro-4-hydroxyphenyl)-N-(2-fluoro-5-(trifluoromethyl)benzyl)-1,2,4-oxadiazole-3-carboxamide]"
12,20.9 µM,"O=C(NCc1ccc(Cn2cccn2)cc1)c1noc(-c2cc(Cl)c(O)c(Cl)c2)n1 [156a, N-(4-((1H-pyrazol-1-yl)methyl)benzyl)-5-(3,5-dichloro-4-hydroxyphenyl)-1,2,4-oxadiazole-3-carboxamide]"
13,3.33 µM,"O=C(NCc1cccc(N2CCCCC2)c1)c1noc(-c2cc(Cl)c(O)c(Cl)c2)n1 [157a, 5-(3,5-dichloro-4-hydroxyphenyl)-N-(3-(piperidin-1-yl)benzyl)-1,2,4-oxadiazole-3-carboxamide]"
14,17.5 µM,"CN(C)c1ccc(CNC(=O)c2noc(-c3cc(Cl)c(O)c(Cl)c3)n2)cc1 [158a, 5-(3,5-dichloro-4-hydroxyphenyl)-N-(4-(dimethylamino)benzyl)-1,2,4-oxadiazole-3-carboxamide]"
15,4.83 µM,"O=C(NCc1ccc(F)c(C(F)(F)F)c1)c1noc(-c2cc(Cl)c(O)c(Cl)c2)n1 [159a, 5-(3,5-dichloro-4-hydroxyphenyl)-N-(4-fluoro-3-(trifluoromethyl)benzyl)-1,2,4-oxadiazole-3-carboxamide]"
16,7.26 µM,"CN(C)c1cccc(CNC(=O)c2noc(-c3cc(Cl)c(O)c(Cl)c3)n2)c1 [160a, 5-(3,5-dichloro-4-hydroxyphenyl)-N-(3-(dimethylamino)benzyl)-1,2,4-oxadiazole-3-carboxamide]"
17,6.21 µM,"O=C(NCc1cccc(-n2cccn2)c1)c1noc(-c2cc(Cl)c(O)c(Cl)c2)n1 [161a, N-(3-(1H-pyrazol-1-yl)benzyl)-5-(3,5-dichloro-4-hydroxyphenyl)-1,2,4-oxadiazole-3-carboxamide]"
18,9.24 µM,"O=C(c1nc(-c2cc(Cl)c(O)c(Cl)c2)no1)N(Cc1cccnc1)Cc1cccnc1 [162a, 3-(3,5-dichloro-4-hydroxyphenyl)-N,N-bis(pyridin-3-ylmethyl)-1,2,4-oxadiazole-5-carboxamide]"

row,IC50,Structure (SMILES)
1,11.5 µM,"O=C(NCc1cccc(OC(F)F)c1)c1noc(-c2cc(Cl)c(O)c(Cl)c2)n1 [163a, 5-(3,5-dichloro-4-hydroxyphenyl)-N-(3-(difluoromethoxy)benzyl)-1,2,4-oxadiazole-3-carboxamide]"
2,12.9 µM,"CC(C)(C)C(=O)CN(Cc1cccc(OC(F)(F)F)c1)C(=O)c1nc(-c2cc(Cl)c(O)c(Cl)c2)no1 [164a, 3-(3,5-dichloro-4-hydroxyphenyl)-N-(3,3-dimethyl-2-oxobutyl)-N-(3-(trifluoromethoxy)benzyl)-1,2,4-oxadiazole-5-carboxamide]"
3,11.5 µM,"CC(C)(C)C(=O)CN(Cc1ccc(Oc2ccccc2)cc1)C(=O)c1nc(-c2cc(Cl)c(O)c(Cl)c2)no1 [165a, 3-(3,5-dichloro-4-hydroxyphenyl)-N-(3,3-dimethyl-2-oxobutyl)-N-(4-phenoxybenzyl)-1,2,4-oxadiazole-5-carboxamide]"
4,6.21 µM,"O=C(NCc1ccc(N2CCCCC2)cc1)c1nc(-c2cc(Cl)c(O)c(Cl)c2)no1 [166a, 3-(3,5-dichloro-4-hydroxyphenyl)-N-(4-(piperidin-1-yl)benzyl)-1,2,4-oxadiazole-5-carboxamide]"
5,9.61 µM,"O=C(c1nc(-c2cc(Cl)c(O)c(Cl)c2)no1)N(Cc1ccccc1)Cc1cccnc1 [167a, N-benzyl-3-(3,5-dichloro-4-hydroxyphenyl)-N-(pyridin-3-ylmethyl)-1,2,4-oxadiazole-5-carboxamide]"
6,2.11 µM,"O=C(c1nc(-c2cc(Cl)c(O)c(Cl)c2)no1)N(Cc1ccc(Oc2ccccc2)cc1)Cc1cccnc1 [168a, 3-(3,5-dichloro-4-hydroxyphenyl)-N-(4-phenoxybenzyl)-N-(pyridin-3-ylmethyl)-1,2,4-oxadiazole-5-carboxamide]"
7,2.95 µM,"C=CCN(Cc1cccc(OC(F)(F)F)c1)C(=O)c1nc(-c2cc(Cl)c(O)c(Cl)c2)no1 [169a, N-allyl-3-(3,5-dichloro-4-hydroxyphenyl)-N-(3-(trifluoromethoxy)benzyl)-1,2,4-oxadiazole-5-carboxamide]"
8,3.62 µM,"C=CCN(Cc1ccc(F)c(F)c1)C(=O)c1nc(-c2cc(Cl)c(O)c(Cl)c2)no1 [170a, N-allyl-3-(3,5-dichloro-4-hydroxyphenyl)-N-(3,4-difluorobenzyl)-1,2,4-oxadiazole-5-carboxamide]"
9,7.44 µM,"O=C(NCc1ccc(Oc2ccc(F)cc2)cc1)c1nc(-c2cc(Cl)c(O)c(Cl)c2)no1 [171a, 3-(3,5-dichloro-4-hydroxyphenyl)-N-(4-(4-fluorophenoxy)benzyl)-1,2,4-oxadiazole-5-carboxamide]"
10,4.41 µM,"Cc1cncc(Oc2cccc(CN(C)C(=O)c3nc(-c4cc(Cl)c(O)c(Cl)c4)no3)c2)n1 [172a, 3-(3,5-dichloro-4-hydroxyphenyl)-N-methyl-N-(3-(6-methylpyrazin-2-yloxy)benzyl)-1,2,4-oxadiazole-5-carboxamide]"
11,12.4 µM,"CN(Cc1ccc(Oc2ccccn2)cc1)C(=O)c1nc(-c2cc(Cl)c(O)c(Cl)c2)no1 [173a, 3-(3,5-dichloro-4-hydroxyphenyl)-N-methyl-N-(4-(pyridin-2-yloxy)benzyl)-1,2,4-oxadiazole-5-carboxamide]"
12,8.07 µM,"CN(Cc1ccc(-c2ccc(C(F)(F)F)cn2)cc1)C(=O)c1nc(-c2cc(Cl)c(O)c(Cl)c2)no1 [174a, 3-(3,5-dichloro-4-hydroxyphenyl)-N-methyl-N-(4-(5-(trifluoromethyl)pyridin-2-yl)benzyl)-1,2,4-oxadiazole-5-carboxamide]"
13,6.78 µM,"CN(Cc1cccc(-c2ccncc2)c1)C(=O)c1nc(-c2cc(Cl)c(O)c(Cl)c2)no1 [175a, 3-(3,5-dichloro-4-hydroxyphenyl)-N-methyl-N-(3-(pyridin-4-yl)benzyl)-1,2,4-oxadiazole-5-carboxamide]"
14,24.6 µM,"CN(Cc1cccc(-c2ncccn2)c1)C(=O)c1nc(-c2cc(Cl)c(O)c(Cl)c2)no1 [176a, 3-(3,5-dichloro-4-hydroxyphenyl)-N-methyl-N-(3-(pyrimidin-2-yl)benzyl)-1,2,4-oxadiazole-5-carboxamide]"
15,16.3 µM,"CN(Cc1cccc(-c2cncnc2)c1)C(=O)c1nc(-c2cc(Cl)c(O)c(Cl)c2)no1 [177a, 3-(3,5-dichloro-4-hydroxyphenyl)-N-methyl-N-(3-(pyrimidin-5-yl)benzyl)-1,2,4-oxadiazole-5-carboxamide]"
16,7.94 µM,"CN(Cc1cccc(Oc2ccccn2)c1)C(=O)c1nc(-c2cc(Cl)c(O)c(Cl)c2)no1 [178a, 3-(3,5-dichloro-4-hydroxyphenyl)-N-methyl-N-(3-(pyridin-2-yloxy)benzyl)-1,2,4-oxadiazole-5-carboxamide]"
17,10.7 µM,"O=C(NCc1ccc(Oc2cccc(Cl)c2)cc1)c1nc(-c2cc(Cl)c(O)c(Cl)c2)no1 [179a, N-(4-(3-chlorophenoxy)benzyl)-3-(3,5-dichloro-4-hydroxyphenyl)-1,2,4-oxadiazole-5-carboxamide]"
18,10.3 µM,"CC(C)Oc1ccc(Oc2ccc(CNC(=O)c3nc(-c4cc(Cl)c(O)c(Cl)c4)no3)cc2)cc1Cl [180a, N-(4-(3-chloro-4-isopropoxyphenoxy)benzyl)-3-(3,5-dichloro-4-hydroxyphenyl)-1,2,4-oxadiazole-5-carboxamide]"
